Results taken from patent US4065354A, “Lysozyme conjugates for enzyme immunoassays” (priority 1975, dated 1977).

Tests used:
[1] = test system: methadone antibody; experiment: methadone lysozyme conjugate enzyme immunoassay (sensitivity, cross-reactivity); conditions: relative to methadone at 0.5μg/ml; ratio of concentrations giving the same optical density reading
[2] = test system: morphine antibodies; experiment: homogeneous enzyme immunoassay with morphine conjugate to lysozyme, cross-reactivity
[3] = test system: amphetamine antibody; experiment: amphetamine lysozyme conjugate enzyme immunoassay, cross-reactivity; assay type: binding; conditions: related to 1μg/ml amphetamine; 50μl of urine
Protocol: The next drug to be considered is amphetamine. Again, the same procedure is employed for lysozyme as for the prior assays, except that 50μl of urine is employed. The relative reactivity is related to 1μg/ml amphetamine.

[4] = test system: morphine antibodies; experiment: inhibition of Example 2 morphine-lysozyme conjugate by antibody and recovery by morphine; assay type: biochemical
[5] = test system: thyroxine antibodies; experiment: activity of thyroxine-lysozyme conjugate (Example 17), inhibition by antibody, return by thyroxine; assay type: biochemical
[6] = compound concentration 0.3 μg/ml
[7] = compound concentration 300 μg/ml

## CN(C)CCCN1c2ccccc2Sc2ccc(Cl)cc21 [Chlorpromazine]
[1]
  Relative Reactivity: 0.011

## COc1ccc2c3c1O[C@H]1[C@@H](O)C=C[C@H]4[C@@H](C2)N(C)CC[C@@]341 [Codeine]
[2]; [6]
  Percent max. rate: 7%
[2]; compound concentration 3 μg/ml
  Percent max. rate: 90%

## CC(N)Cc1ccccc1 (stereo not drawn) [Amphetamine]
[3]
  Relative Reactivity: 1

## CC(N)C(O)c1ccccc1 (stereo not drawn) [Phenylpropanolamine]
[3]
  Relative Reactivity: 0.33

## CC(C)(N)Cc1ccccc1 [phentermine]
[3]
  Relative Reactivity: 0.62

## Hydromorphine
[2]; [6]
  Percent max. rate: 6%
[2]; compound concentration 3 μg/ml
  Percent max. rate: 55%

## COc1ccc2c(c1)[C@]13CCCC[C@@H]1[C@H](C2)N(C)CC3 [Dextromethorphan]
[1]
  Relative Reactivity: 0.0042

## CC(COc1ccccc1)NC(C)C(O)c1ccc(O)cc1 (stereo not drawn) [Isoxsuprine]
[3]
  Relative Reactivity: 0.2

## CC(C)=CCN1CCC2(C)c3cc(O)ccc3CC1C2C (stereo not drawn) [Pentazocine]
[2]; [7]
  Percent max. rate: 3%

## CNC(C)CC1CCCC1 (stereo not drawn) [Cyclopentamine]
[3]
  Relative Reactivity: 0.33

## CN(C)CCCN1c2ccccc2Sc2ccc(Cl)cc21 [Thorazine]
[2]; compound concentration 35 μg/ml (9.9 × 10^-5 M)
  Percent max. rate: 6%

## CCC1(c2ccccc2)C(=O)NC(=O)NC1=O [Phenobarbital]
[2]; [7]
  Percent max. rate: 0%

## CNC(C)(C)Cc1ccccc1 [Mephentermine]
[3]
  Relative Reactivity: 0.62

## CCC(=O)O[C@](Cc1ccccc1)(c1ccccc1)[C@H](C)CN(C)C [Darvon]
[2]; [7]
  Percent max. rate: 4%

## CN[C@@H](C)[C@H](O)c1ccccc1 [Ephedrine]
[3]
  Relative Reactivity: 0.22

## CN1CC[C@]23c4c5ccc(O)c4O[C@H]2[C@@H](O)C=C[C@H]3[C@H]1C5 [Morphine]
[2]; [6]
  Percent max. rate: 5%
[2]; compound concentration 3 μg/ml
  Percent max. rate: 67%

## CN[C@@H](C)Cc1ccccc1 [Methamphetamine]
[3]
  Relative Reactivity: 1.1

## CC(CCc1ccccc1)NC(C)C(O)c1ccc(O)cc1 (stereo not drawn) [Nylidrin]
[3]
  Relative Reactivity: 0.27

## COC(=O)[C@H]1[C@@H](OC(=O)c2ccccc2)C[C@@H]2CC[C@H]1N2C [Cocaine]
[2]; [7]
  Percent max. rate: 2%

## CC(N)Cc1ccc(O)cc1 (stereo not drawn) [p-Hydroxyamphetamine]
[3]
  Relative Reactivity: 0.022

## CCC(=O)C(CC(C)N(C)C)(c1ccccc1)c1ccccc1 (stereo not drawn) [Methadone]
[2]; compound concentration 30 μg/ml (8.7 × 10^-5 M)
  Percent max. rate: 1%
[1]
  Relative Reactivity: 1

## CC(CN1c2ccccc2Sc2ccccc21)N(C)C (stereo not drawn) [Phenergan]
[1]
  Relative Reactivity: 0.0125

## 2: 0^3 -methoxyimidoylmethylmorphine conjugated to lysozyme [Example 2]
[4]; antibody-inhibited conjugate
  recovery of enzyme activity upon addition of aqueous morphine: full recovery of activity
[4]; dialysate of Example 2
  inhibition of conjugate enzyme activity by morphine antibodies: could be inhibited by morphine antibodies

## CCC(=O)O[C@](Cc1ccccc1)(c1ccccc1)[C@H](C)CN(C)C [Dextropropoxyphene]
[1]
  Relative Reactivity: 0.00089

## NCCc1ccccc1 [Phenethylamine]
[3]
  Relative Reactivity: 0.2

## CNC(C)CC1CCCCC1 (stereo not drawn) [Propylhexedrine]
[3]
  Relative Reactivity: 0.05

## 17: thyroxine methyl ester diglycolic acid derivative conjugated to lysozyme [Example 17]
[5]
  inhibition by thyroxine antibodies: could be inhibited by thyroxine antibodies
[5]; antibody-inhibited conjugate
  activity after addition of thyroxine: activity returned by the addition of thyroxine
[5]; product after dialysis and centrifugation
  enzyme activity of the conjugate: active

## Morphine glucuronide
[2]; [6]
  Percent max. rate: 4%
[2]; compound concentration 10 μg/ml (2.1 × 10^-5 M)
  Percent max. rate: 77%
